This assay concerns the target T1, human recombinant Btk (Homo sapiens, UniProt Q06187).
T1 construct: purchased Invitrogen Corporation
Put plainly: Human Recombinant Btk Enzyme Assay. It is filed as biochemical. The following applies: human recombinant Btk 1 nM, ATP 20 μM, 60 min at room temperature; read-out: IC50 for Inhibition of Btk.

Structures can show the parent of a compound that is named as a salt.

As a reminder, the IC50 is the concentration that inhibits the measured activity by half.

T1 sequence (Q06187 whole entry): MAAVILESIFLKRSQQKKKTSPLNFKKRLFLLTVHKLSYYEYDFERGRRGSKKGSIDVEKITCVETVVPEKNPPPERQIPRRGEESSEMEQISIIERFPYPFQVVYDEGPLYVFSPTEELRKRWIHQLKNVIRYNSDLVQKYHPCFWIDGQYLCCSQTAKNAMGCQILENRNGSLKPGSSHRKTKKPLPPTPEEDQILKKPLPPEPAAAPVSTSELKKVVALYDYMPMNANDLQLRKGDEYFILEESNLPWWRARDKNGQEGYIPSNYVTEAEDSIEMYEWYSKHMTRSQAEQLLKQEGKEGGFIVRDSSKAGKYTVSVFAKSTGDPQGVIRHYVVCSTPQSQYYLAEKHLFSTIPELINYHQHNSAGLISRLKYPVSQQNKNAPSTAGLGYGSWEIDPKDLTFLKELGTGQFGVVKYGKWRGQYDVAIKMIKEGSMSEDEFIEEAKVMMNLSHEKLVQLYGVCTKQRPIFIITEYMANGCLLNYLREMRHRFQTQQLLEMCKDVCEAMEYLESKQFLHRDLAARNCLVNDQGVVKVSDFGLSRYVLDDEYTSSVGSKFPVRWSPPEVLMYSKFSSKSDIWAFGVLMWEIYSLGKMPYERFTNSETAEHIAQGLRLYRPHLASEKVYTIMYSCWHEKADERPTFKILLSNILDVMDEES

Take `Cc1c(-c2ccc(C(N)=O)c3[nH]c4cc(C(C)(C)O)ccc4c23)cccc1N1Cc2ccncc2C1=O` [Example 76-18]: the IC50 is 1.8 nM.
`Cc1c(NC(=O)C(C)(C)c2ccc(Cl)cc2)cccc1-c1ccc(C(N)=O)c2[nH]c3cc(C(=O)N4CCN(C)CC4)ccc3c12` [Example 5-44]: the IC50 was 16 nM.
Turning to `Cc1c(-c2ccc(C(N)=O)c3[nH]c4cc(CN)ccc4c23)cccc1N1Cc2ccccc2C1=O` [Example 33-1, 7-(aminomethyl)-4-(2-methyl-3-(1-oxoisoindolin-2-yl)phenyl)-9H-carbazole-1-carboxamide], the IC50 was 1.9 nM.
As for `Cc1c(Nc2ncnc3cc(F)ccc23)cccc1-c1ccc(C(N)=O)c2[nH]c3cc(N4CCCC4=O)ccc3c12` [Example 79-4], the IC50 came to 16 nM.
Turning to `CC(=O)OCC1CCc2c([nH]c3c(C(N)=O)ccc(-c4cccc(N5C(=O)c6ccc(C(C)(C)C)cc6C5=O)c4C)c23)C1` (stereo not shown) [Example 31-3, (5-(3-(5-tert-butyl-1,3-dioxoisoindolin-2-yl)-2-methylphenyl)-8-carbamoyl-2,3,4,9-tetrahydro-1H-carbazol-2-yl)mEtOAc], the IC50 worked out at 1500 nM.
Regarding `NC(=O)c1ccc(Br)c2c1[nH]c1cc(NC(=O)OCc3ccccc3)ccc12` [Example 50-3, benzyl 5-bromo-8-carbamoyl-9H-carbazol-2-ylcarbamate], the IC50 came to 1300 nM.
As for `Cc1c(NC(=O)c2nccs2)cccc1-c1ccc(C(N)=O)c2[nH]c3cc(N4CCN(C)CC4)ccc3c12` [Example 77-2, N-(3-(1-carbamoyl-7-(4-methylpiperazin-1-yl)-9H-carbazol-4-yl)-2-methylphenyl)thiazole-2-carboxamide], the IC50 turned out to be 1.9 nM.
The same measure for `NC(=O)c1ccc(-c2ccccc2F)c2c3c([nH]c12)CCC(Oc1ccccc1)C3` (stereo not shown) [Example 47-2, 5-(2-fluorophenyl)-3-phenoxy-2,3,4,9-tetrahydro-1H-carbazole-8-carboxamide]: 4200 nM; for `Cc1c(NC(=O)c2ccc(F)cc2)cccc1-c1ccc(C(N)=O)c2[nH]c3cc(N(Cc4ccccc4)Cc4ccccc4)ccc3c12` [Example 54-7, 7-(dibenzylamino)-4-(3-(4-fluorobenzamido)-2-methylphenyl)-9H-carbazole-1-carboxamide]: 830 nM.
The same measure for `Cc1c(NC(=O)c2ncccc2O)cccc1-c1ccc(C(N)=O)c2[nH]c3cc(C(=O)N4CCN(C)CC4)ccc3c12` [Example 5-19, 4-(3-(3-hydroxypicolinamido)-2-methylphenyl)-7-(4-methylpiperazine-1-carbonyl)-9H-carbazole-1-carboxamide (prepared as the TFA salt)]: 17 nM; for `CN1CCN(C(=O)C2CCc3c([nH]c4c(C(N)=O)ccc(Br)c34)C2)CC1` (stereo not shown) [Example 1-3, 5-bromo-2-(4-methylpiperazine-1-carbonyl)-2,3,4,9-tetrahydro-1H-carbazole-8-carboxamide]: 490 nM; for `Cc1c(NC(=O)c2nccn2C)cccc1-c1ccc(C(N)=O)c2[nH]c3cc(NC(=O)NC(C)C)ccc3c12` [Example 60-1, 7-(3-isopropylureido)-4-(2-methyl-3-(1-methyl-1H-imidazole-2-carboxamido)phenyl)-9H-carbazole-1-carboxamide]: 18 nM.
In the case of `CN1CCN(C(=O)c2ccc3c(c2)[nH]c2c(C(N)=O)ccc(-c4ccccc4)c23)CC1` [Example 3-45], the IC50 was found to be 16 nM.
Regarding `Cc1c(NC(=O)c2ccc(F)cc2)cccc1-c1ccc(C(N)=O)c2[nH]c3cc(NC(=O)Cc4ccncc4)ccc3c12` [Example 57-13], the IC50 stood at 15 nM.
For `Cc1c(NC(=O)c2ccc(F)cc2)cccc1-c1ccc(C(N)=O)c2[nH]c3cc(C(N)=O)ccc3c12` [Example 24-1, 4-(3-(4-fluorobenzamido)-2-methylphenyl)-9H-carbazole-1,7-dicarboxamide] the value was 17 nM; for `Cc1c(-c2ccc(C(N)=O)c3[nH]c4cc(C(O)CO)ccc4c23)cccc1N1Cc2ccc(F)cc2C1=O` (stereo not shown) [Example 70-9], 1.5 nM.
Take `Cc1nc(NC(=O)c2ccccc2)sc1-c1ccc(C(N)=O)c2[nH]c3c(c12)CCC(C(=O)NC1CCOCC1)C3` (stereo not shown) [Example 5-86]: the IC50 came out at 910 nM.
`Cc1c(-c2ccc(C(N)=O)c3[nH]c4c(c23)CCC(C(C)(C)O)C4)cccc1-n1c(C)nc2ccccc2c1=O` (stereo not shown) [Example 76-10, 2-(2-hydroxypropan-2-yl)-5-(2-methyl-3-(2-methyl-4-oxoquinazolin-3(4H)-yl)phenyl)-2,3,4,9-tetrahydro-1H-carbazole-8-carboxamide]: the IC50 was 18 nM.
`CN1CCN(C(=O)c2ccc3c(c2)[nH]c2c(C(N)=O)ccc(-c4cccc5[nH]c(C(=O)Nc6ccc(F)cc6)cc45)c23)CC1` [Example 2-25, 4-(2-(4-fluorophenylcarbamoyl)-1H-indol-4-yl)-7-(4-methylpiperazine-1-carbonyl)-9H-carbazole-1-carboxamide]: the IC50 was determined as 3100 nM.
For the molecule `NC(=O)c1ccc(-c2ccccc2F)c2c1[nH]c1cc(C(=O)N3CCOCC3)ccc12` [Example 3-9, 4-(2-fluorophenyl)-7-(morpholine-4-carbonyl)-9H-carbazole-1-carboxamide], the IC50 worked out at 17 nM.
For the molecule `Cc1c(N)cccc1-c1ccc(C(N)=O)c2[nH]c3c(c12)CCC(NC(=O)OCc1ccccc1)C3` (stereo not shown) [Example 51-1, benzyl 5-(3-amino-2-methylphenyl)-8-carbamoyl-2,3,4,9-tetrahydro-1H-carbazol-2-ylcarbamate], the IC50 is 400 nM.
With `Cc1c(NC(=O)CC(C)C)cccc1-c1ccc(C(N)=O)c2[nH]c3cc(C(=O)N4CCN(C)CC4)ccc3c12` [Example 5-62, 4-(2-methyl-3-(3-methylbutanamido)phenyl)-7-(4-methylpiperazine-1-carbonyl)-9H-carbazole-1-carboxamide (prepared as the TFA salt)], the IC50 was determined as 17 nM.
As for `Cc1c(NS(=O)(=O)CCCCl)cccc1-c1ccc(C(N)=O)c2[nH]c3cc(C(=O)N4CCN(C)CC4)ccc3c12` [Example 10-4, 4-(3-(3-chloropropylsulfonamido)-2-methylphenyl)-7-(4-methylpiperazine-1-carbonyl)-9H-carbazole-1-carboxamide], the IC50 is 17 nM.
For `Cc1c(-c2ccc(C(N)=O)c3[nH]c4cc(C(O)CO)ccc4c23)cccc1N1Cc2ccc(F)cc2C1=O` (stereo not shown) [Example 70-10], the IC50 was determined as 1 nM.
Take `Cc1c(-c2ccc(C(N)=O)c3[nH]c4cc(C(O)CO)ccc4c23)cccc1N1Cc2ccc(F)cc2C1=O` (racemic) [Example 70-6, 7-((RS)-1,2-dihydroxyethyl)-4-(3-(6-fluoro-1-oxoisoindolin-2-yl)-2-methylphenyl)-9H-carbazole-1-carboxamide]: the IC50 turned out to be 0.8 nM.
On to `Cc1c(NC(=O)c2ccc(F)cc2)cccc1-c1ccc(C(N)=O)c2[nH]c3cc(C(O)CO)ccc3c12` (racemic) [Example 70-2], for which the IC50 is 2.2 nM.
For the molecule `CN1CCN(C(=O)c2ccc3[nH]c4c(C(N)=O)ccc(-c5ccccc5F)c4c3c2)CC1` [Example 2-18, 4-(2-fluorophenyl)-6-(4-methylpiperazine-1-carbonyl)-9H-carbazole-1-carboxamide], the IC50 is 16 nM.
In the case of `Cc1c(-c2ccc(C(N)=O)c3[nH]c4cc(C(=O)N5CCN(C)CC5)ccc4c23)cccc1N(C(C)C)S(C)(=O)=O` (single isomer, unassigned) [Example 10-3, 4-(3-(N-isopropylmethylsulfonamido)-2-methylphenyl)-7-(4-methylpiperazine-1-carbonyl)-9H-carbazole-1-carboxamide], the IC50 was determined as 4900 nM.
For “7-(1,2-dihydroxyethyl)-4-(2-methyl-3-(6-methyl-1-oxoisoindolin-2-yl)phenyl)-9H-carbazole-1-carboxamide^[b] [Example 70-12]”, the IC50 was 1.3 nM.
`Cc1c(-c2ccc(C(N)=O)c3[nH]c4cc(NCC(O)CO)ccc4c23)cccc1N1Cc2ccccc2C1=O` (stereo not shown) [Example 67-1, 7-(2,3-dihydroxypropylamino)-4-(2-methyl-3-(1-oxoisoindolin-2-yl)phenyl)-9H-carbazole-1-carboxamide]: the IC50 is 2.2 nM.
For the molecule `Cc1c(Nc2ncnc3ccc(F)cc23)cccc1-c1ccc(C(N)=O)c2[nH]c3cc(N4CCCC4=O)ccc3c12` [Example 79-3], the IC50 was 15 nM.
Consider `Cc1ccc2c(c1)C(=O)N(c1cccc(-c3ccc(C(N)=O)c4[nH]c5cc(C(COC(=O)C(C)N)OC(=O)C(C)N)ccc5c34)c1C)C2` (stereo not shown) [Example 83-3, 1-(8-carbamoyl-5-(2-methyl-3-(6-methyl-1-oxoisoindolin-2-yl)phenyl)-9H-carbazol-2-yl)ethane-1,2-diylbis(2-aminopropanoate)], for which the IC50 is 1.4 nM.
With `COc1cccc(NC(=O)c2ccc3c(c2)[nH]c2c(C(N)=O)ccc(-c4cccc(NC(=O)c5ccc(F)cc5)c4C)c23)c1` [Example 24-33, 4-(3-(4-fluorobenzamido)-2-methylphenyl)-N^7-(3-methoxyphenyl)-9H-carbazole-1,7-dicarboxamide (prepared as the TFA salt)], the IC50 was 470 nM.
Take `Cc1c(-c2ccc(C(N)=O)c3[nH]c4cc(NC(=O)C(C)(C)C)ccc4c23)cccc1N1Cc2cc(F)ccc2C1=O` [Example 66-34]: the IC50 turned out to be 16 nM.
For `Cc1c(-c2ccc(C(N)=O)c3[nH]c4cc(C(O)CO)ccc4c23)cccc1N1Cc2ccccc2C1=O` (racemic) [Example 70-3, 7-((RS)-1,2-dihydroxyethyl)-4-(2-methyl-3-(1-oxoisoindolin-2-yl)phenyl)-9H-carbazole-1-carboxamide], the IC50 is 2.3 nM.
For `Cc1c(NC(=O)c2ccc(S(N)(=O)=O)cc2)cccc1-c1ccc(C(N)=O)c2[nH]c3cc(C(=O)N4CCN(C)CC4)ccc3c12` [Example 5-69, 4-(2-methyl-3-(4-sulfamoylbenzamido)phenyl)-7-(4-methylpiperazine-1-carbonyl)-9H-carbazole-1-carboxamide (prepared as the TFA salt)], the IC50 amounted to 2 nM.
Consider `Cc1c(NC(=O)Nc2ccccc2)cccc1-c1ccc(C(N)=O)c2[nH]c3cc(C(=O)N4CCN(C)CC4)ccc3c12` [Example 8-3, 4-(2-methyl-3-(3-phenylureido)phenyl)-7-(4-methylpiperazine-1-carbonyl)-9H-carbazole-1-carboxamide], for which the IC50 was found to be 16 nM.

These data come from patent publication US8362065B2, “Carbazole carboxamide compounds useful as kinase inhibitors” (Bristol-Myers Squibb Company, priority 2008, dated 2013).
